Patent US7034020B2, “Derivatives of butyric acid and uses thereof” (The University of Arkansas for Medical Science, priority 1999, dated 2006)

Tests used:
[1] = Toxicity in mice treated with MEB; type: in vivo; details: dose approximated 0.7 g/kg/day
[2] = system: KLH-specific Th1 cells (clone D3); experiment: Th1 cell anergy induction in vitro (primary culture with MEB, secondary culture restimulation); type: cell-based, C57BL/10 mice; details: for Proliferation in antigen-stimulated secondary cultures: secondary: KLH
Experimental: KLH-specific Th1 cells (clone D3) are incubated in primary cultures with (FIG. 5A) MEB (1 mM) and/or IL-2 (10% Con A CM), or (FIG. 5B) MEB (1 mM) and/or KLH (50 μg/ml). After 2 days, the Th1 cells are isolated from the primary cultures, rested, and then re-incubated in secondary cultures stimulated with antigen (KLH, 50 μg/ml) or IL-2 (10% Con A CM).
Th1 cells are treated with MEB in the presence or absence of antigen or exogenous IL-2.
The ability of the butyrate derivative to induce Th1 cell anergy is examined using a protocol previously developed for n-butyrate-induced T cell tolerance (Gilbert and Weigle, 1993). Briefly, Th1 cells are incubated in primary cultures at 2.5×10^5 cells/ml, along with MEB (1 mM), KLH (50 μg/ml), and 5×10^6/ml irradiated syngeneic spleen cells as APC. Alternatively, the Th1 cells are incubated in primary cultures containing MEB and IL-2 (10% Con A CM). Control primary cultures receive MEB and APC, but no antigen or IL-2. After incubation for 24 h at 37° C., the cells in the primary cultures are harvested, washed free of MEB, and reincubated at 2.5×10^5 ml in secondary cultures without MEB. The Th1 cells in the secondary cultures are stimulated with 10% IL-2-cQntaining Con A CM, or with 5×10^6/ml irradiated syngeneic spleen cells as APC, and KLH. After 2 days in the secondary cultures, the Th1 cells are assessed for proliferation (pulsed with [^3H]-TdR for 12 h).

With `CCCC(=O)OCCN1CCOCC1.Cl` [MEB, 2-(4-Morpholinyl)ethyl butyrate hydrochloride] as the compound, how does the Toxicity [1] read?
Its Toxicity is “No toxicity”.

And the “Proliferation in antigen-stimulated secondary cultures” value ([2]; primary culture: IL-2 and MEB (1 mM))?
Its value is “retain their ability to proliferate to antigen”.

What about the “Proliferation in antigen-stimulated secondary cultures” value ([2]; primary culture: MEB alone (1 mM)) of the same compound?
Its value is “retain their ability to proliferate in response to antigen stimulation”.

And the “Proliferation in secondary cultures stimulated with exogenous IL-2” value ([2]; primary culture: antigen (KLH) and MEB (1 mM), secondary: IL-2)?
The value was “can still proliferate”.

And the “Proliferation in antigen-stimulated secondary cultures” value ([2]; primary culture: antigen (KLH) and MEB (1 mM))?
Its value is “lose their ability to proliferate”.
